Laboratory results taken from PubChem BioAssay (NCI).
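These data come from cells grown in 96-well plates and exposed to compound for 48 hours at five concentrations. TGI marks complete inhibition of growth.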

Columns and labels:
Assay in all cases: NCI-60 cell line screen, 48 h
[1] = tested on: 786-0 renal
[2] = tested on: A498 renal
[3] = tested on: A549 NSCLC
[4] = tested on: ACHN renal
[5] = tested on: BT-549 breast
[6] = tested on: CAKI-1 renal
[7] = tested on: CCRF-CEM leukemia
[8] = tested on: COLO 205 colon
[9] = tested on: DU-145 prostate
[10] = tested on: EKVX NSCLC
[11] = tested on: HCC-2998 colon
[12] = tested on: HCT-116 colon
[13] = tested on: HCT-15 colon
[14] = tested on: HL-60(TB) leukemia
[15] = tested on: HOP-62 NSCLC
[16] = tested on: HOP-92 NSCLC
[17] = tested on: HS 578T breast
[18] = tested on: HT29 colon
[19] = tested on: IGROV1 ovarian
[20] = tested on: K-562 leukemia
[21] = tested on: KM12 colon
[22] = tested on: M14 melanoma
[23] = tested on: MALME-3M melanoma
[24] = tested on: MCF7 breast
[25] = tested on: MDA-MB-231 breast
[26] = tested on: MDA-MB-435
[27] = tested on: MDA-N
[28] = tested on: MOLT-4 leukemia
[29] = tested on: NCI-H226 lung
[30] = tested on: NCI-H23 lung
[31] = tested on: NCI-H460 lung
[32] = tested on: NCI-H522 lung
[33] = tested on: NCI/ADR-RES ovarian
[34] = tested on: OVCAR-3 ovarian
[35] = tested on: OVCAR-4 ovarian
[36] = tested on: OVCAR-5 ovarian
[37] = tested on: OVCAR-8 ovarian
[38] = tested on: PC-3 prostate
[39] = tested on: RPMI-8226 leukemia
[40] = tested on: RXF 393 renal
[41] = tested on: SF-268 CNS
[42] = tested on: SF-295 CNS
[43] = tested on: SF-539 CNS
[44] = tested on: SK-MEL-2 melanoma
[45] = tested on: SK-MEL-28 melanoma
[46] = tested on: SK-MEL-5 melanoma
[47] = tested on: SK-OV-3 ovarian
[48] = tested on: SN12C renal
[49] = tested on: SNB-19 CNS
[50] = tested on: T-47D breast
[51] = tested on: TK-10 renal
[52] = tested on: U251 CNS
[53] = tested on: UACC-257 melanoma
[54] = tested on: UACC-62 melanoma
[55] = tested on: UO-31 renal
[56] = tested on: LOX IMVI melanoma
[57] = tested on: SNB-75 CNS
[58] = tested on: SW-620 colon

## Cc1cc(S(=O)(=O)/N=C(/C(=C=[N-])C#N)[n+]2ccc(N(C)C)cc2)c(SCC(=O)O)cc1Cl
[1]
  TGI: > 100 µM
[2]
  TGI: > 100 µM
[3]
  TGI: > 100 µM
[4]
  TGI: > 100 µM
[5]
  TGI: > 100 µM
[6]
  TGI: > 100 µM
[7]
  TGI: > 100 µM
[8]
  TGI: > 100 µM
[9]
  TGI: > 100 µM
[10]
  TGI: > 100 µM
[11]
  TGI: > 100 µM
[12]
  TGI: > 100 µM
[13]
  TGI: > 100 µM
[14]
  TGI: > 100 µM
[15]
  TGI: > 100 µM
[16]
  TGI: 70.4 µM
[17]
  TGI: > 100 µM
[18]
  TGI: > 100 µM
[19]
  TGI: > 100 µM
[20]
  TGI: > 100 µM
[21]
  TGI: > 100 µM
[22]
  TGI: > 100 µM
[23]
  TGI: 64.5 µM
[24]
  TGI: > 100 µM
[25]
  TGI: > 100 µM
[26]
  TGI: > 100 µM
[27]
  TGI: > 100 µM
[28]
  TGI: > 100 µM
[29]
  TGI: > 100 µM
[30]
  TGI: > 100 µM
[31]
  TGI: > 100 µM
[32]
  TGI: > 100 µM
[33]
  TGI: > 100 µM
[34]
  TGI: > 100 µM
[35]
  TGI: > 100 µM
[36]
  TGI: > 100 µM
[37]
  TGI: > 100 µM
[38]
  TGI: > 100 µM
[39]
  TGI: > 100 µM
[40]
  TGI: > 100 µM
[41]
  TGI: > 100 µM
[42]
  TGI: > 100 µM
[43]
  TGI: > 100 µM
[44]
  TGI: > 100 µM
[45]
  TGI: > 100 µM
[46]
  TGI: > 100 µM
[47]
  TGI: > 100 µM
[48]
  TGI: > 100 µM
[49]
  TGI: > 100 µM
[50]
  TGI: > 100 µM
[51]
  TGI: > 100 µM
[52]
  TGI: > 100 µM
[53]
  TGI: > 100 µM
[54]
  TGI: > 100 µM
[55]
  TGI: > 100 µM

## CN(C)c1ccc(/C=C(\NC(=O)c2ccccc2)c2nn(C)c(=O)o2)cc1
[1]
  TGI: > 100 µM
[2]
  TGI: > 100 µM
[3]
  TGI: > 100 µM
[4]
  TGI: > 100 µM
[5]
  TGI: > 100 µM
[6]
  TGI: > 100 µM
[7]
  TGI: > 100 µM
[8]
  TGI: > 100 µM
[9]
  TGI: > 100 µM
[10]
  TGI: > 100 µM
[11]
  TGI: > 100 µM
[12]
  TGI: > 100 µM
[13]
  TGI: > 100 µM
[14]
  TGI: > 100 µM
[15]
  TGI: 38.1 µM
[16]
  TGI: > 100 µM
[17]
  TGI: > 100 µM
[18]
  TGI: > 100 µM
[19]
  TGI: > 100 µM
[20]
  TGI: > 100 µM
[21]
  TGI: > 100 µM
[56]
  TGI: > 100 µM
[22]
  TGI: > 100 µM
[23]
  TGI: > 100 µM
[24]
  TGI: > 100 µM
[25]
  TGI: > 100 µM
[26]
  TGI: > 100 µM
[27]
  TGI: > 100 µM
[28]
  TGI: > 100 µM
[29]
  TGI: 93.8 µM
[30]
  TGI: > 100 µM
[31]
  TGI: > 100 µM
[32]
  TGI: 47 µM
[33]
  TGI: 65.6 µM
[34]
  TGI: > 100 µM
[35]
  TGI: 97.7 µM
[36]
  TGI: > 100 µM
[37]
  TGI: 82.9 µM
[38]
  TGI: > 100 µM
[39]
  TGI: > 100 µM
[40]
  TGI: > 100 µM
[41]
  TGI: > 100 µM
[42]
  TGI: > 100 µM
[43]
  TGI: > 100 µM
[44]
  TGI: > 100 µM
[45]
  TGI: > 100 µM
[46]
  TGI: 93.5 µM
[47]
  TGI: > 100 µM
[48]
  TGI: > 100 µM
[49]
  TGI: 80 µM
[57]
  TGI: 46.8 µM
[58]
  TGI: > 100 µM
[50]
  TGI: > 100 µM
[51]
  TGI: > 100 µM
[52]
  TGI: 54.3 µM
[53]
  TGI: > 100 µM
[54]
  TGI: > 100 µM
[55]
  TGI: > 100 µM
